According to patent publication US8410150B2, “Inhibitors of carnitine palmitoyltransferase and treating cancer” (University Health Network, priority 2007, dated 2013):

Biological target: T1, human CPT1A (Homo sapiens, UniProt P50416)
T1 construct: made in house; host or cells: Saccharomyces cerevisiae (pESC-trp) or cultured mammalian cells (pCDNA3.1); mitochondrial extract
T1 sequence (P50416 1-773): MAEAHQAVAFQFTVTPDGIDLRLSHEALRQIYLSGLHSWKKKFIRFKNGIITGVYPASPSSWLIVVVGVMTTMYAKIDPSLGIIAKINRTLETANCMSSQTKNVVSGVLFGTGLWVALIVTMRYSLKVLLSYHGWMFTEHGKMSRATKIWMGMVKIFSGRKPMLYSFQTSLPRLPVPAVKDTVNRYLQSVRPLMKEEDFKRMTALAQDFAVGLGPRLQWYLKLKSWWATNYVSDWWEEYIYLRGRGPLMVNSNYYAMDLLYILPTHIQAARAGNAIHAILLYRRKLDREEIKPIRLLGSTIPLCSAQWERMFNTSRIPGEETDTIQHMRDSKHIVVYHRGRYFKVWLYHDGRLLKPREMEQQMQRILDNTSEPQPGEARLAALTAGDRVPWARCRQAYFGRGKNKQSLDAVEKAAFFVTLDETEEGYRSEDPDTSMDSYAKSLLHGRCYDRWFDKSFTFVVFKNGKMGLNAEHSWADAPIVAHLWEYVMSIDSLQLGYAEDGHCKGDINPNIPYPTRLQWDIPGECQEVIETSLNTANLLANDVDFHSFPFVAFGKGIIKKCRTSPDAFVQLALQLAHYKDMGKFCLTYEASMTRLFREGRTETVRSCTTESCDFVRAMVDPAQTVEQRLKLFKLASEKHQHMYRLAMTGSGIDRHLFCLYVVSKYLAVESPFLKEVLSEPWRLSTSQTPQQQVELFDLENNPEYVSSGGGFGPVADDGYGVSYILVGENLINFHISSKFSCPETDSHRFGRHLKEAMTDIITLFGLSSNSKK
Assay: Human CPT1A LC/MS assay
Type: biochemical
Conditions: human CPT1A LC/MS assay, dose response format
Source text: Nucleotide sequences encoding human CPT1 enzymes were individually cloned into the yeast expression vector pESC-trp at the Cla1 (5′ terminus) and Pac1 (3′ terminus) restriction sites by PCR amplification of the open reading frame using oligonucleotide primers designed to encode the wild-type CPT1 protein sequence. Standard molecular biology techniques were used to transform and express the CPT1 proteins in the yeast Saccharomyces cerevisiae. The yeast cells were lysed by enzymatic degradation of the cell wall by Zymolase, and the mitochondria were isolated by standard biochemical techniques. The integrity of the isolated mitochondria was monitored by determining the activity of succinate dehydrogenase in the mitochondrial preparations. The mitochondrial extracts were stored at −80° C. in buffer containing 10 mM HEPES pH 7.4 and 250 mM sucrose.
Human CPT1 (A, B, C) genes were additionally cloned into the pCDNA3.1 vector individually for expression in cultured mammalian cells. Cells expressing the exogenous CPT1A were identified and grown under standard conditions. Mammalian cells were harvested, and mitochondrial extracts prepared using standard biochemical methods. The mitochondrial extracts were stored at −80° C. in buffer containing 10 mM HEPES pH 7.4 and 250 mM sucrose.
Assays were performed in 96-well plate format. Each 100 μL reaction contained 40 mM KCl, 50 mM TrisHCl pH 7.5, and 250 mM mannitol (Assay Buffer), and 1.6 μg protein of an extract, 20 μM palmitoyl-CoA, 50 μM L-carnitine, and 10 ug/mL BSA. Reactions were incubated at room temperature and stopped after 10 minutes by extraction with 200 μL of water saturated n-butanol containing myristoyl carnitine (500 nM) as an internal standard. The samples were thoroughly mixed, and the phases separated by centrifugation. Samples were prepared for analysis with a 10 fold dilution of the n-butanol phase containing the reaction product palmitoyl carnitine into a 50:50 (acetonitrile:water) solvent for analysis. […] of prepared sample was separated on a Phenomenex Jupiter 5μ C4 reverse-phase column using an Agilent 1100 HPLC with a gradient from 50% acetonitrile (0.5% acetic acid) to 100% acetonitrile and quantified by detection with a Bruker Esquire 3000plus mass spectrometer. The abundance of the palmitoyl carnitine product was determined relative to the internal standard and the actual quantity of palmitoyl carnitine can be determined from a standard curve prepared using the n-butanol solution containing the internal standard.
Compounds were evaluated in two formats, a screening format, and a dose response format. The screening format was performed by adding 25 μL compound in 20% DMSO and Assay Buffer to 25 μL of extract containing […] and Assay Buffer, followed by a 10 minute incubation at room temperature. 50 μL of 40 μM palmitoyl-CoA in Assay Buffer was added to the reaction mixture, mixed and incubated for 10 minutes at room temperature. A negative control for activity was also performed where the carnitine was omitted from the reaction. A positive control for activity was also performed by omitting compound from the solution containing 20% DMSO and Assay Buffer. The reaction mixture was extracted and analyzed as described above. The inhibition by compound was determined by comparing the control relative activity to the relative activity observed in wells containing the compound. Relative activity was determined by subtracting the relative intensity (area palmitoyl carnitine/area myristoyl carnitine) observed in the negative control from the relative intensity observed in the experimental well, and dividing by the relative activity observed in the positive control.
[formula] Compound characterization by dose response format was performed using the above described assay conditions and a 16 point compound titration in 2 fold compound dilution steps. The DMSO concentration was kept constant at 20% (v/v) for all compound concentrations.

## Cc1ccc(CCc2ccc(S(=O)(=O)N[C@H](CC(=O)O)C[N+](C)(C)C)s2)cc1 [Example S81, (R)-3-carboxy-N,N,N-trimethyl-2-(5-(4-methylphenethyl)thiophene-2-sulfonamido)propan-1-aminium 2,2,2-trifluoroacetate]
  IC50: 1 to 10 µM

## CCCCCCCCOc1ccc(NS(=O)(=O)N[C@H](CC(=O)[O-])C[N+](C)(C)C)cc1 [Example S103, (R)-3-(N-(4-(octyloxy)phenyl)sulfamoylamino)-4-(trimethylammonio) butanoate]
  IC50: ≤ 1 µM

## CCCCCc1ccc(S(=O)(=O)N[C@H](CC(=O)O)C[N+](C)(C)C)cc1 [Example S23, (R)-3-(4-pentylphenylsulfonamido)-4-(trimethylammonio)butanoate 2,2,2-trifluoroacetate]
  IC50: 1 to 10 µM

## C[N+](C)(C)C[C@@H](CC(=O)[O-])NC(=O)Nc1cccc(Oc2ccccc2)c1 [Example S38, (R)-3-(3-(3-Phenoxyphenyl)ureido)-4-(trimethylammonio)butanoate]
  IC50: 100 to 1000 µM

## C[N+](C)(C)C[C@@H](CC(=O)O)NS(=O)(=O)c1ccc(CCc2ccccc2)s1 [Example S79, (R)-3-carboxy-N,N,N-trimethyl-2-(5-phenethylthiophene-2-sulfonamido)-propan-1-aminium 2,2,2-trifluoroacetate]
  IC50: 10 to 100 µM

## C[N+](C)(C)C[C@@H](CC(=O)O)NC(=O)c1ccc(-c2cccs2)s1 [Example S44, (R)-3-(2,2′-bithiophene-5-carboxamido)-4-(trimethylammonio)butanoate]
  IC50: 100 to 1000 µM

## C[N+](C)(C)C[C@@H](CC(=O)[O-])NC(=O)Nc1ccccc1Oc1ccccc1 [Example S100, (R)-3-carboxy-N,N,N-trimethyl-2-(3-(2-phenoxyphenyl)ureido)propan-1-aminium]
  IC50: > 2500 µM

## C[N+](C)(C)C[C@@H](CC(=O)O)NC(=O)c1ccc(C#Cc2ccccc2)cc1 [Example S62, (R)-3-(4-(phenylethynyl)benzamido)-4-(trimethylammonio)butanoate 2,2,2-trifluoroacetate]
  IC50: 10 to 100 µM

## C[N+](C)(C)C[C@@H](CC(=O)O)NC(=O)c1ccc(CCc2ccsc2)o1 [Example S124, (R)-3-carboxy-N,N,N-trimethyl-2-(5-(2-(thiophen-3-yl)ethyl)furan-2-carboxamido)propan-1-aminium 2,2,2-trifluoroacetate]
  IC50: ≤ 1 µM

## CCCCCc1ccc(CCc2ccc(S(=O)(=O)N[C@H](CC(=O)O)C[N+](C)(C)C)s2)cc1 [Example S83, (R)-3-carboxy-N,N,N-trimethyl-2-(5-(4-pentylphenethyl)thiophene-2-sulfonamido)propan-1-aminium 2,2,2-trifluoroacetate]
  IC50: 1 to 10 µM

## C[N+](C)(C)C[C@@H](CC(=O)O)NC(=O)c1ccc(C#Cc2ccsc2)s1 [Example S97, (R)-3-carboxy-N,N,N-trimethyl-2-(5-(thiophen-3-ylethynyl)thiophene-2-carboxamido)propan-1-aminium 2,2,2-trifluoroacetate]
  IC50: ≤ 1 µM

## C[N+](C)(C)C[C@@H](CC(=O)[O-])NC(=O)Nc1cc(C(F)(F)F)ccc1Cl [Example S85, (R)-3-(3-(2-chloro-5-(trifluoromethyl)phenyl)ureido)-4-(trimethyl-ammonio)butanoate]
  IC50: 1000 to 2500 µM

## Cc1ccoc1C(=O)Nc1ccc(C(=O)N[C@H](CC(=O)[O-])C[N+](C)(C)C)cc1 [Example S5, (R)-3-(4-(3-methylfuran-2-carboxamido)benzamido)-4-(trimethylammonio)-butanoate]
  IC50: 100 to 1000 µM

## C[N+](C)(C)C[C@@H](CC(=O)[O-])NC(=O)c1ccc(C#Cc2ccccc2)o1 [Example S3, (R)-3-(5-(phenylethynyl)furan-2-carboxamido)-4-(trimethylammonio)-butanoate]
  IC50: 10 to 100 µM

## Cc1cccc(CCc2ccc(S(=O)(=O)N[C@H](CC(=O)O)C[N+](C)(C)C)s2)c1 [Example S77, (R)-3-carboxy-N,N,N-trimethyl-2-(5-(3-methylphenethyl)thiophene-2-sulfonamido)propan-1-aminium 2,2,2-trifluoroacetate]
  IC50: 10 to 100 µM

## C[N+](C)(C)C[C@@H](CC(=O)[O-])NC(=O)Nc1ccccc1-c1ccccc1 [Example S101, (R)-2-(3-biphenyl-2-ylureido)-3-carboxy-N,N,N-trimethylpropan-1-aminium]
  IC50: 1000 to 2500 µM

## C[N+](C)(C)C[C@@H](CC(=O)O)NS(=O)(=O)c1ccc(-c2ccccn2)s1 [Example S21, (R)-3-(5-(pyridin-2-yl)thiophene-2-sulfonamido)-4-(trimethylammonio)-butanoate 2,2,2-trifluoroacetate]
  IC50: 1000 to 2500 µM

## C[N+](C)(C)C[C@@H](CC(=O)O)NC(=O)c1cccc(CCc2ccccc2)c1 [Example S46, (R)-3-(3-phenethylbenzamido)-4-(trimethylammonio)butanoate]
  IC50: 100 to 1000 µM

## C[N+](C)(C)C[C@@H](CC(=O)[O-])NC(=O)c1ccc(OCC(F)(F)F)nc1 [Example S52, (R)-3-(6-(2,2,2-trifluoroethoxy)nicotinamido)-4-(trimethylammonio)butanoate]
  IC50: 1000 to 2500 µM

## C[N+](C)(C)C[C@@H](CC(=O)[O-])NC(=O)Nc1cccc(-n2cccc2)c1 [Example S84, (R)-3-(3-(3-(1H-pyrrol-1-yl)phenyl)ureido)-4-(trimethylammonio)butanoate]
  IC50: 100 to 1000 µM

## CN(C)C[C@@H](CC(=O)O)NC(=O)N(C)c1ccc(Oc2ccccc2)cc1 [Example S33, (R)-4-(dimethylammonio)-3-(3-methyl-3-(4-phenoxyphenyl)-ureido)butanoate]
  IC50: > 2500 µM

## C[N+](C)(C)C[C@@H](CC(=O)O)NC(=O)Nc1ccccc1I [Example S99, (R)-3-carboxy-2-(3-(2-iodophenyl)ureido)-N,N,N-trimethylpropan-1-aminium]
  IC50: > 2500 µM

## CCCOc1ccc(C(=O)N[C@H](CC(=O)[O-])C[N+](C)(C)C)cc1 [Example S1, (R)-3-(4-propoxybenzamido)-4-(trimethylammonio)butanoate]
  IC50: 100 to 1000 µM

## CCCCCCOc1cccc(CCc2ccc(C(=O)N[C@H](CC(=O)O)C[N+](C)(C)C)o2)c1 [Example S125, (R)-3-carboxy-2-(5-(3-(hexyloxy)phenethyl)furan-2-carboxamido)-N,N,N-trimethylpropan-1-aminium 2,2,2-trifluoroacetate]
  IC50: ≤ 1 µM

## CC(=O)Nc1ccc(C(=O)N[C@H](CC(=O)[O-])C[N+](C)(C)C)cc1 [Example S53, (R)-3-(4-acetamidobenzamido)-4-(trimethylammonio)butanoate]
  IC50: > 2500 µM

## C[N+](C)(C)C[C@@H](CC(=O)[O-])NC(=O)c1ccc(Br)o1 [Example S114, (R)-3-(5-bromofuran-2-carboxamido)-4-(trimethylammonio)butanoate]
  IC50: 100 to 1000 µM
